From ChEMBL document CHEMBL4184237, “Cytotoxic oligophenols from the rhizome of Wikstroemia indica” (Bioorg Med Chem Lett, 2018)

Tests used:
T98G [1] = experiment: Induction of apoptosis in human T98G cells assessed as necrotic cells level incubated for 48 hrs by Annexin V-FITC and PI double staining based flow cytometry (reference value: 1.66%); assay type: functional
T98G [2] = experiment: Induction of apoptosis in human T98G cells assessed as early apoptotic cells level incubated for 48 hrs by Annexin V-FITC and PI double staining based flow cytometry (reference value: 1.79%); assay type: functional
SW480 [3] = experiment: Induction of apoptosis in human SW480 cells assessed as early apoptotic cells level incubated for 48 hrs by Annexin V-FITC and PI double staining based flow cytometry (reference value: 2.75%); assay type: functional
T98G [4] = experiment: Cytotoxicity against human T98G cells assessed as reduction in cell viability incubated for 24 hrs by CCK8 assay; assay type: functional, cell-based
SW480 [5] = experiment: Induction of apoptosis in human SW480 cells assessed as viable cells level incubated for 48 hrs by Annexin V-FITC and PI double staining based flow cytometry (reference value: 93.2%); assay type: functional
SW480 [6] = experiment: Cytotoxicity against human SW480 cells assessed as reduction in cell viability incubated for 24 hrs by CCK8 assay; assay type: functional, cell-based; details: SW480, 24 h
T98G [7] = experiment: Induction of apoptosis in human T98G cells assessed as late apoptotic cells level incubated for 48 hrs by Annexin V-FITC and PI double staining based flow cytometry (reference value: 5.35%); assay type: functional
SW480 [8] = experiment: Induction of apoptosis in human SW480 cells assessed as late apoptotic cells level incubated for 48 hrs by Annexin V-FITC and PI double staining based flow cytometry (reference value: 2.09%); assay type: functional
U-87 MG = experiment: Cytotoxicity against human U87 cells assessed as reduction in cell viability incubated for 24 hrs by CCK8 assay; assay type: functional, cell-based, U-87MG ATCC
T98G [9] = experiment: Induction of apoptosis in human T98G cells assessed as viable cells level incubated for 48 hrs by Annexin V-FITC and PI double staining based flow cytometry (reference value: 91.3%); assay type: functional
SW480 [10] = experiment: Induction of apoptosis in human SW480 cells assessed as necrotic cells level incubated for 48 hrs by Annexin V-FITC and PI double staining based flow cytometry (reference value: 1.17%); assay type: functional
HCT-116 = experiment: Cytotoxicity against human HCT116 cells assessed as reduction in cell viability incubated for 24 hrs by CCK8 assay; assay type: functional, cell-based; details: HCT-116, 24 h
SW480 [11] = experiment: Induction of apoptosis in human SW480 cells assessed as Bax protein level incubated for 48 hrs by Western blot analysis relative to untreated control; assay type: functional
SW480 [12] = experiment: Induction of apoptosis in human SW480 cells assessed as Bcl-xL protein level incubated for 48 hrs by Western blot analysis relative to untreated control; assay type: functional
T98G [13] = experiment: Induction of apoptosis in human T98G cells assessed as Bax protein level incubated for 48 hrs by Western blot analysis relative to untreated control; assay type: functional
T98G [14] = experiment: Effect on GAPDH protein expression human T98G cells assessed as GAPDH protein level incubated for 48 hrs by Western blot analysis relative to untreated control; assay type: ADME, cell-based
T98G [15] = experiment: Induction of apoptosis in human T98G cells assessed as Bcl-xL protein level incubated for 48 hrs by Western blot analysis relative to untreated control; assay type: functional
SW480 [16] = experiment: Effect on GAPDH protein expression human SW480 cells assessed as GAPDH protein level incubated for 48 hrs by Western blot analysis relative to untreated control; assay type: ADME, cell-based; details: sw480, 48 h

Structure (SMILES)	Activity (T98G [1])	Activity (T98G [2])	Activity (SW480 [3])	IC50 (T98G [4])	Activity (SW480 [5])	IC50 (SW480 [6])	Activity (T98G [7])	Activity (SW480 [8])	IC50 (U-87 MG)	Activity (T98G [9])	Activity (SW480 [10])	IC50 (HCT-116)	fold change (FC) (SW480 [11])	fold change (FC) (SW480 [12])	fold change (FC) (T98G [13])	fold change (FC) (T98G [14])	fold change (FC) (T98G [15])	fold change (FC) (SW480 [16])
CC(=O)O[C@H]1C(=O)[C@@]2(C)[C@H]([C@H](OC(=O)c3ccccc3)[C@]3(O)C[C@H](OC(=O)[C@H](O)[C@@H](NC(=O)c4ccccc4)c4ccccc4)C(C)=C1C3(C)C)[C@]1(OC(C)=O)CO[C@@H]1C[C@@H]2O [PACLITAXEL]	3.23%	15%	45.6%	0.74 µM	33.6%	0.19 µM	56.2%	14.7%	4.67 µM	25.6%	1.13%							
O=c1ccc2ccc(Oc3cc4ccc(O[C@@H]5O[C@H](CO)[C@@H](O)[C@H](O)[C@H]5O)c(-c5c(O)ccc6ccc(=O)oc56)c4oc3=O)cc2o1				> 100 µM		> 100 µM			> 100 µM			> 100 µM						
O=c1c(-c2c(O)cc3c(c2O)C[C@@H](O)[C@@H](c2ccc(O)c(O)c2)O3)c(-c2ccc(O)cc2)oc2cc(O)cc(O)c12	1.15%	17.8%	21.7%	27.3 µM	68.1%	30.4 µM	17.2%	9.3%	32.5 µM	63.9%	0.909%	28.7 µM	2.4	0.7	3.8	0.9	0.7	1
O=c1c(-c2c(O)cc3c(c2O)C[C@H](O)[C@H](c2ccc(O)c(O)c2)O3)c(-c2ccc(O)cc2)oc2cc(O)cc(O)c12	1.55%	4.11%	18.5%	83.5 µM	64.8%	71 µM	15%	13.7%	88.4 µM	79.4%	2.87%	87.6 µM	1.9	0.6	4.1	1	0.4	1
O=c1c(-c2c(O)cc3c(c2O)C[C@@H](O)[C@H](c2ccc(O)cc2)O3)c(-c2ccc(O)cc2)oc2cc(O)cc(O)c12	1.36%	10.3%	34.2%	30.6 µM	51.6%	17.9 µM	25.4%	12.9%	35.7 µM	62.9%	1.31%	24.4 µM	2.3	0.8	3.4	1	0.7	0.9
